This is an account of results in EP0652009A1, “Identification and use of protease inhibitors” (ELI LILLY AND COMPANY, priority 1993, dated 1995).

This assay addresses Cathepsin D (Homo sapiens, UniProt P07339). The assay is described as follows: Assay 3: cathepsin D inhibition activity (non-cellular assay, chromogenic substrate). It is filed as biochemical. Further details: Frozen human placental tissue was thawed and homogenized; from tissue; host or cells: human placenta. Conditions: cathepsin D from human placental tissue; for Ki: chromogenic substrate, pH 3.7, 37°C; for inhibition at 4 µM: 4 µM test compound, inhibition of initial rate relative to control, read-out: % inhibition at 4µ M. The method, then: A third non-cellular assay for determining in vitro aspartyl protease inhibitory activity is generally described in Jupp, R.A. et al., (1990) Biochem. J., 265:871-878 and Rao et al., J. Med. Chem. (1993), in press. The assay is carried out by incubating a test compound with a suitable aspartyl protease, such as cathepsin D, in the presence of a chromogenic substrate. The inhibition constant, Ki, value may then be determined by quantifying the competitive inhibition of the hydrolysis of the chromogenic substrate. A variety of chromogenic substrates that are useful for assaying aspartyl protease activity are discussed in Dunn, et al., (1986) Biochem. J., 237:899-906. A preferred chromogenic substrate for a cathepsin D assay is disclosed in Scarborough, P.E. et al., Protein Science, (1993), 2:264-276.
Concentrations of substrate solutions and cleavage products may be verified using amino acid analysis. The enzyme preparations may be titrated with a tightly binding inhibitor to quantitate the active concentration of the enzyme. Enzyme concentrations are typically in the range of from 1-6 nM. Stock solutions of the test compound are prepared at concentrations ranging from 1.0 to 5.0 mg/mL, and then 50-100 µL portions of these stock solutions may be further diluted to a concentration in the range of 5 to 300 µM for rate determinations.
[…] Then, the test compounds are assayed over a concentration range of, for example, 5 to 300 µM for rate determinations.
A decrease in absorbance in the range of 284-324 nm may be monitored using a spectrophotometer. Absorbance readings are typically taken at various timepoints. The initial velocities are then plotted versus the initial substrate concentration. […] Estimates of Ki may then be determined using the Dixon construction. Dixon, M., (1953) Biochem J., 55:170-171.
If the ratio of the total active enzyme concentration to the estimated Ki value ([E]t/Ki) is less than 0.2, then the precise Ki value may be computed by using a non-linear curve fitting program based on the equation: v= Vmax [S]/[S] + Km (1 + [I]/Ki ) [formula] where v is the initial rate, [S] is the initial substrate concentration, [I] is the inhibitor concentration and Km and Ki are defined above. […] P.J.F., (1972) Biochem J., 127:321-333. This Assay is exemplfied in Assay 3.
The homogenate was centrifuged at 10,000 rpm for 30 minutes in a Sorvall GSA rotor. The supernatant was adjusted to pH 3.7 using 5.7N HCl and then sodium acetate was added to a concentration of 0.1M. The resultant mixture was incubated for 30 minutes at 0°C, resulting in the formation of a precipitate. This precipitate was removed by centrifugation (30 minutes, 10,000 rpm). The acidic supernatent was applied to a chromatography column (pepstatinyl agarose equilibrated with 0.1M sodium acetate, pH 3.5, 0.1% Brij 35, and 1M NaCl), washed until the OD₂₈₀ of the effluent returned to baseline, and then eluted with 50mM Tris-HCl, pH 8.6, 0.1% Brij 35, and 1M NaCl. The eluent was dialyzed against 10mM sodium phosphate, pH 7.0, 0.1% Brij 35, and 0.1M NaCl, and then applied to a 1 mL DEAE-Sephacel column equilibrated with the same buffer. Cathepsin D was recovered in the breakthrough fraction.
The enzyme mixture (125 µL buffer (0.1M sodium formate at pH 3.7), 1 µL of a 1mM solution of test compound, 4 µL of DMSO, enzyme and water to provide a total volume of 230 µL) was vortexed and prewarmed for four minutes before the addition of the chromogenic substrate. After warming, the enzyme mixture was added to 20 µL of a […] dilution of substrate solution. A control reaction mixture was similarly prepared without the addition of the test compound. The percent of inhibition of the initial rate of reaction in the presence of a particular concentration of test compound (i.e. 4 µM) may be determined for the test compound by monitoring the reaction mixture in parallel to the control reaction. […]

Cathepsin D, sequence (P07339 169-412 limits assumed): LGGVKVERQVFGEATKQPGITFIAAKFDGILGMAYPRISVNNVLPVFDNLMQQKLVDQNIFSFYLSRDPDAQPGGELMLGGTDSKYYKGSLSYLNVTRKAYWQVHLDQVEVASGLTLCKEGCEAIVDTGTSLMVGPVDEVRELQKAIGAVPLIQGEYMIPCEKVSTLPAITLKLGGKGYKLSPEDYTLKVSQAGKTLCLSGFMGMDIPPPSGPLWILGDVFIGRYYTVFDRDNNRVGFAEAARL
Cathepsin D, sequence (P07339 65-162 limits assumed): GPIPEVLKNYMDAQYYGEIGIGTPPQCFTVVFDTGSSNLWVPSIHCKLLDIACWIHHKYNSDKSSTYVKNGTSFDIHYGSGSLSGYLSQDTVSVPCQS

As for `CC(C)C(NC(=O)OCc1ccccc1)C(=O)NC(Cc1ccccc1)C1OC1C(Cc1ccccc1)NC(=O)C(NC(=O)OCc1ccccc1)C(C)C` [Example 1, 1,6-Diphenyl-2(S);5(S)-di[N-[2(S)-N(benzyloxycarbonyl)amino-3-methyl-butanoyl]amino]-3,4-cis-epoxyhexane], the Ki amounted to 1.16 ± 0.26 µM. Compound `CC[C@H](NC(=O)OCc1ccccc1)C(=O)N[C@@H](Cc1ccccc1)[C@@H]1O[C@@H]1[C@H](Cc1ccccc1)NC(=O)[C@H](CC)NC(=O)OCc1ccccc1` [Example 2, 1,6-Diphenyl-2(S);5(S)-di[N-[2(S)-N(benzyloxycarbonyl)aminobutanoyl]amino]-3,4-cis-epoxyhexane] showed a Ki of 0.75 ± 0.14 µM. `CC[C@H](C)[C@H](NC(=O)OCc1ccc2ccccc2n1)C(=O)N[C@@H](Cc1ccccc1)[C@@H]1O[C@@H]1[C@H](Cc1ccccc1)NC(=O)[C@@H](NC(=O)OCc1ccc2ccccc2n1)[C@@H](C)CC` [Example 3, 1,6-Diphenyl-2(S);5(S)-di[N-[2(S)-N[(quinolin-2-ylmethoxy)carbonyl]amino-3(S)-methylpentanoyl]amino]-3,4-cis-epoxyhexane]: the inhibition at 4 µM came out at 40%. For `CCC(NC(=O)N(C)Cc1ccc2ccccc2n1)C(=O)NC(Cc1ccccc1)C1OC1C(Cc1ccccc1)NC(=O)C(CC)NC(=O)N(C)Cc1ccc2ccccc2n1` [Example 4, 1,6-Diphenyl-2(S);5(S)-di[N-[2(S)-N-[[N(methyl)-N(quinolin-2-ylmethyl)amino]carbonyl]aminobutanoyl]amino]-3,4-cis-epoxyhexane], the inhibition constant Ki was 6.2 µM. With `CCC(C)C(NC(=O)N(C)Cc1ccc2ccccc2n1)C(=O)NC(Cc1ccccc1)C1OC1C(Cc1ccccc1)NC(=O)C(NC(=O)N(C)Cc1ccc2ccccc2n1)C(C)CC` [Example 5, 1,6-Diphenyl-2(S);5(S)-di[N-[2(S)-N[[N(methyl)-N(quinolin-2-ylmethyl)amino]carbonyl]amino-3(S)-methylpentanoyl]amino]-3,4-cis-epoxyhexane], affinity was put at a Ki of 0.24 µM. `CC(C)(C)NC(=O)c1ccccc1CC(O)C(Cc1ccccc1)NC(=O)C(CC(N)=O)NC(=O)c1ccc2ccccc2n1` (stereo not drawn) [Example 6, [1S-(1R*,4R*,5S*)]-N-[1-(2-amino-2-oxoethyl)-2-oxo-3-aza-4-phenylmethyl-5-hydroxy-6-(2-(1-t-butylamino-1-oxomethyl)phenyl)hexyl]-2-quinolinyl carboxamide] gave an inhibitory constant (Ki) of 1.8 ± 0.26 µM. Still for that read-out and setting: the figure for `Cc1ccc(CC(O)C(Cc2ccccc2)NC(=O)C(CC(N)=O)NC(=O)c2ccc3ccccc3n2)c(C(=O)NC(C)(C)C)c1` (stereo not drawn) [Example 7, [1S-(1R*,4R*,5S*)]-N-[1-(2-Amino-2-oxoethyl)-2-oxo-3-aza-4-phenylmethyl-5-hydroxy-6-(2-(1-t-butylamino-1-oxomethyl)-4-methylphenyl)hexyl]-2-quinolinyl carboxamide] is 0.42 ± 0.06 µM. Regarding `Cc1ccc2ccc(C(=O)N[C@@H](CC(N)=O)C(=O)N[C@@H](Cc3ccccc3)[C@H](O)Cc3ccccc3C(=O)NC(C)(C)C)nc2c1` [Example 8, [lS-(1R*,4R*,5S*)]-N-(1-(2-amino-2-oxoethyl)-2-oxo-3-aza-4-phenylmethyl-5-hydroxy-6-(2-(1-t-butylamino-1-oxomethyl)phenyl)hexyl)-7-methylquinolin-2-yl carboxamide], the affinity corresponds to a Ki of 1.17 µM. Turning to `Cc1cc(C(=O)N[C@@H](CC(N)=O)C(=O)N[C@@H](Cc2ccccc2)[C@H](O)Cc2ccccc2C(=O)NC(C)(C)C)nc2ccccc12` [Example 10, [1S-(1R*,4R*,5S*)]-N-(1-(2-Amino-2-oxoethyl)-2-oxo-3-aza-4-phenylmethyl-5-hydroxy-6-(2-(1-t-butylamino-1-oxomethyl)phenyl)hexyl)-4-methylquinolin-2-yl carboxamide], the Ki amounted to 5.51 µM. In the case of `CC(C)(C)NC(=O)c1sccc1C[C@@H](O)[C@H](Cc1ccccc1)NC(=O)[C@H](CC(N)=O)NC(=O)c1ccc2ccccc2n1` [Example 14, [1S-(1R*,4R*,5S*)]-N-(1-(2-Amino-2-oxoethyl)-2-oxo-3-aza-4-phenylmethyl-5-hydroxy-6-(2-(1-t-butylamino-1-oxomethyl)thien-3-yl)hexyl)-2-quinolinyl carboxamide], the inhibition at 4 µM worked out at 22%. Turning to `CC(C)(C)NC(=O)c1ccccc1C[C@@H](O)[C@H](Cc1ccccc1)NC(=O)[C@H](CC(=O)O)NC(=O)c1ccc2ccccc2n1` [Example 15, [1S-(1R*,R*,5S*)]-N-(1-(2-Hydroxy-2-oxoethyl)-2-oxo-3-aza-4-phenylmethyl-5-hydroxy-6-(2-(1-t-butylamino-1-oxomethyl)phenyl)hexyl)-2-quinolinyl carboxamide], the inhibition at 4 µM was found to be 49%. For the compound `CC(C)(C)NC(=O)c1ccccc1C[C@@H](O)[C@H](Cc1ccccc1)NC(=O)[C@H](CC(=O)NCc1ccccn1)NC(=O)c1ccc2ccccc2n1` [Example 16, [1S-(1R*,4R*,5S*)]-N-(1-(2-(N-2-Pyridylmethyl)amino)-2-oxoethyl]-2-oxo-3-aza-4-phenylmethyl-5-hydroxy-6-(2-(1-t-butylamino-1-oxomethyl)phenyl)hexyl)-2-quinolinyl carboxamide], the inhibition at 4 µM was determined as 36%. Take `CC(C)(C)NC(=O)c1ccccc1CC(O)C(Cc1ccccc1)NC(=O)C(CC(=O)NCc1ncc[nH]1)NC(=O)c1ccc2ccccc2n1` (stereo not drawn) [Example 17, [1S-(1R*,4R*,5S*)]-N-(1-(2-(N-2-Imidazolylmethyl)amino)-2-oxoethyl)-2-oxo-3-aza-4-phenylmethyl-5-hydroxy-6-(2-(1-t-butylamino-1-oxomethyl)phenyl)hexyl)-2-quinolinyl carboxamide]: the affinity corresponds to a Ki of 2.3 ± 0.2 µM.

The compound `CC(C)(C)NC(=O)c1ccccc1C[C@@H](O)[C@H](Cc1ccccc1)NC(=O)[C@H](CC(=O)NCc1nc2ccccc2[nH]1)NC(=O)c1ccc2ccccc2n1` [Example 18, [1S-(1R*,4R*,5S*)]-N-(1-(2-(N-2-Benzimidazolylmethyl)amino)-2-oxoethyl)-2-oxo-3-aza-4-phenylmethyl-5-hydroxy-6-(2-(1-t-butylamino-1-oxomethyl)phenyl)hexyl)-2-quinolinyl carboxamide] had a Ki of 2.2 ± 0.2 µM.

For the compound `CC(C)(C)NC(=O)c1ccccc1C[C@@H](O)[C@H](Cc1ccccc1)NC(=O)[C@H](CC(N)=O)NC(=O)c1cc(Cl)c2ccccc2n1` [Example 19, [1S-(1R*,4R*,5S*)]-N-(1-(2-Amino-2-oxoethyl)-2-oxo-3-aza-4-phenylmethyl-5-hydroxy-6-(2-(1-t-butylamino-1-oxomethyl)phenyl)hexyl)-4-chloroquinolin-2-yl carboxamide], the inhibition at 4 µM turned out to be 48%. For `CC(C)(C)NC(=O)c1ccccc1CC(O)C(Cc1ccccc1)NC(=O)C(CC(N)=O)NC(=O)c1ccc2cccc(C(F)(F)F)c2n1` (stereo not drawn) [Example 22, [1S-(1R*,4R*,5S*)]-N-(1-(2-Amino-2-oxoethyl)-2-oxo-3-aza-4-phenylmethyl-5-hydroxy-6-(2-(1-t-butylamino-1-oxomethyl)phenyl)hexyl)-8-trifluoromethyl-quinolin-2-yl carboxamide], the affinity, expressed as Ki, was 0.9 ± 0.1 µM. `CC(C)(C)NC(=O)c1ccccc1CC(O)C(Cc1ccccc1)NC(=O)C(CC(N)=O)NC(=O)C(Cc1cccc2ccccc12)NC(=O)OC(C)(C)C` (stereo not drawn) [Example 25, [2R-(2R*,3S*,6S*,9R*)]-N-t-Butyl-2-[2-hydroxy-3-phenylmethyl-4,7-diaza-5,8-dioxo-6-(2-amino-2-oxoethyl)-9-N(t-butoxycarbonyl)amino-10-naphth-1-yl]decyl benzamide] registered a Ki of 1.44 ± 0.26 µM.
